The structures appear in SMILES notation. pIC50: −log10 of the molar value. Read-outs that look alike come from different tables or passages of the source.

Assay type in all cases: cell-based
For assay [1], the system named is A2780 ovarian carcinoma. Nature of the assay: In vitro cell proliferation assay, A2780 (non RET-dependent control). To be noted: Homo sapiens; for pIC50: A2780, antiproliferative activity, 72 hours exposure, CellTiterGlo ATP readout, unrelated non RET-dependent cell line, read-out: A2780 IC50; for IC50: A2780, 72 h, read-out: A2780 IC50 (μM). On the procedure: (§1) In Vitro Cell Proliferation Assay
(§2) To evaluate the antiproliferative activity of a compound of formula (I) the following human cell lines were used: A2780 ovarian carcinoma; TT medullary thyroid carcinoma, harboring a mutated RET-C634W receptor; LC-2/ad human lung adenocarcinoma, harboring the CCDC6-RET fusion protein. Exponentially growing cells were seeded and incubated at 37° C. in a humidified 5% CO2 atmosphere using appropriate medium supplemented with 10% Fetal Bovine Serum. 24 hours following cell plating, scalar doses of the compounds dissolved in 0.1% DMSO were added to the medium and cells were exposed to drugs for either 72 hours (A2780) or 144 hours (TT and LC-2/ad), according to their different proliferation rate. At the end of treatment, cell proliferation was determined by an intracellular ATP monitoring system (CellTiterGlo—Promega), following manufacturer's instructions, and using an Envision instrument (PerkinElmer) as reader. Data obtained from compound versus vehicle treated cells were compared using Assay Explorer (Symyx Technologies Inc) software. IC50 values were calculated using sigmoidal interpolation curve fitting. In the following Table A the antiproliferative activity of representative compounds of formula (I) on one medullary thyroid carcinoma cell line expressing the aforementioned mutated forms of RET (TT) and on one lung adenocarcinoma cell line harboring the aforementioned fusion form of RET (LC-2/ad) is reported. As control, the antiproliferative activity of the same compounds on an unrelated non RET-dependent cell line (A2780) is reported. All these compounds show remarkable activity on RET-driven cellular models with respect to the unrelated ones.
(In ATP-based viability assays light output follows the ATP content of the culture.)

The subject of assay [2] is TT medullary thyroid carcinoma, harboring a mutated RET-C634W receptor. The assay is described as follows: In vitro cell proliferation assay, TT. The note with it: Homo sapiens; for pIC50: antiproliferative activity, 144 hours exposure, CellTiterGlo ATP readout, RET-C634W, read-out: TT IC50; for IC50: 144 h, read-out: TT IC50 (μM). The procedure: as §1, §2
For assay [3], the system named is LC-2/ad human lung adenocarcinoma, harboring the CCDC6-RET fusion protein. Nature of the assay: In vitro cell proliferation assay, LC-2/ad. To be noted: for pIC50: antiproliferative activity, 144 hours exposure, CellTiterGlo ATP readout, CCDC6-RET fusion, read-out: LC-2/ad IC50; for IC50: 144 h, read-out: LC-2/ad IC50 (μM). On the procedure: as §1, §2

For `CC(C)n1cc(-c2ccc3c(C(=O)NC4CC4)cccc3c2)c2c(N)ncnc21` [cmpd 1, 6-(4-Amino-7-isopropyl-7H-pyrrolo[2,3-d]pyrimidin-5-yl)-naphthalene-1-carboxylic acid cyclopropylamide], the pIC50 was 6.06 in assay [1], 9.00 in assay [2] and 8.52 in assay [3].

In the case of `Nc1ncnc2c1c(-c1ccc3c(C(=O)NC4CC4)cccc3c1)cn2C1CCCC1` [cmpd 3, 6-(4-Amino-7-cyclopentyl-7H-pyrrolo[2,3-d]pyrimidin-5-yl)-naphthalene-1-carboxylic acid cyclopropylamide], the values for the pIC50 in assay [1], in assay [2] and in assay [3] were 6.41, 8.52 and 8.22, respectively.

Turning to `CC(C)n1cc(-c2ccc3c(C(N)=O)cccc3c2)c2c(N)ncnc21` [cmpd 4, 6-(4-Amino-7-isopropyl-7H-pyrrolo[2,3-d]pyrimidin-5-yl)-naphthalene-1-carboxylic acid amide], the pIC50 was 5.62 in assay [1], 7.77 in assay [2] and 7.68 in assay [3].

With `CC(C)NC(=O)c1cccc2cc(-c3cn(C(C)C)c4ncnc(N)c34)ccc12` [cmpd 5, 6-(4-Amino-7-isopropyl-7H-pyrrolo[2,3-d]pyrimidin-5-yl)-naphthalene-1-carboxylic acid isopropylamide], the IC50 in assay [1] was determined as 2.94 µM; in assay [2] it was 0.086 µM; in assay [3] it was 0.082 µM.

Regarding `CNC(=O)c1cccc2cc(-c3cn(C(C)C)c4ncnc(N)c34)ccc12` [cmpd 6, 6-(4-Amino-7-isopropyl-7H-pyrrolo[2,3-d]pyrimidin-5-yl)-naphthalene-1-carboxylic acid methylamide], the figures for the pIC50 in assay [1], in assay [2] and in assay [3] were 6.46, 7.62 and 7.31, respectively.

Regarding `CC(C)n1cc(-c2ccc3c(C(=O)NCC(F)(F)F)cccc3c2)c2c(N)ncnc21` [cmpd 7, 6-(4-Amino-7-isopropyl-7H-pyrrolo[2,3-d]pyrimidin-5-yl)-naphthalene-1-carboxylic acid (2,2,2-trifluoro-ethyl)-amide], the pIC50 in assay [1] is 5.55; in assay [2] it was 7.32; in assay [3], 7.34.

Turning to `Nc1ncnc2c1c(-c1ccc3c(C(=O)NC4CC4)cccc3c1)cn2C1CCOCC1` [cmpd 8, 6-[4-Amino-7-(tetrahydro-pyran-4-yl)-7H-pyrrolo[2,3-d]pyrimidin-5-yl]-naphthalene-1-carboxylic acid cyclopropylamide], the pIC50 in assay [1] was 6.09; in assay [2], 8.05; in assay [3], 7.96.

Regarding `CC(C)n1cc(-c2ccc3c(C(=O)Nc4ccc(CN5CCN(C)CC5)c(C(F)(F)F)c4)cccc3c2)c2c(N)ncnc21` [cmpd 10, 6-(4-Amino-7-isopropyl-7H-pyrrolo[2,3-d]pyrimidin-5-yl)-naphthalene-1-carboxylic acid [4-(4-methyl-piperazin-1-ylmethyl)-3-trifluoromethyl-phenyl]-amide], the pIC50 in assay [1] is 7.14; in assay [2], 8.70; in assay [3] it was 8.10.

As to `CC(C)n1cc(-c2ccc3c(C(=O)NC4CCC4)cccc3c2)c2c(N)ncnc21` [cmpd 11, 6-(4-Amino-7-isopropyl-7H-pyrrolo[2,3-d]pyrimidin-5-yl)-naphthalene-1-carboxylic acid cyclobutylamide], the pIC50 in assay [1] was 6.02; in assay [2], 7.55; in assay [3] it was 7.47.

In the case of `Nc1ncnc2c1c(-c1ccc3c(C(=O)NC4CC4)cccc3c1)cn2C1CCC1` [cmpd 12, 6-(4-Amino-7-cyclobutyl-7H-pyrrolo[2,3-d]pyrimidin-5-yl)-naphthalene-1-carboxylic acid cyclopropylamide], the pIC50 in assay [1] was 5.74; in assay [2], 7.38; in assay [3], 7.29.

Take `Nc1ncnc2c1c(-c1ccc3c(C(=O)NC4CC4)cccc3c1)cn2CC1CC1` [cmpd 13, 6-(4-Amino-7-cyclopropylmethyl-7H-pyrrolo[2,3-d]pyrimidin-5-yl)-naphthalene-1-carboxylic acid cyclopropylamide]: the pIC50 in assay [1] was 6.33; in assay [2] it was 8.15; in assay [3], 8.22.

`CC(C)n1cc(-c2ccc3c(c2)CCN3C(=O)NC2CC2)c2c(N)ncnc21` [cmpd 16, 5-(4-Amino-7-isopropyl-7H-pyrrolo[2,3-d]pyrimidin-5-yl)-2,3-dihydro-indole-1-carboxylic acid cyclopropylamide]: the IC50 in assay [1] was 2.19 µM; in assay [2], 0.077 µM; in assay [3], 0.084 µM.

Consider `Nc1ncnc2c1c(-c1ccc3c(C(=O)NC4CC4)cccc3c1)cn2C1CCC(F)(F)CC1` [cmpd 30, 6-[4-Amino-7-(4,4-difluoro-cyclohexyl)-7H-pyrrolo[2,3-d]pyrimidin-5-yl]-naphthalene-1-carboxylic acid cyclopropylamide], for which the pIC50 is 5.63 in assay [1], 7.52 in assay [2] and 7.40 in assay [3].

The values above are taken from patent publication US10221181B2, “6-amino-7-bicyclo-7-deaza-purine derivatives as protein kinase inhibitors” (NERVIANO MEDICAL SCIENCES S.r.l., priority 2014, dated 2019).
